The values below are quoted from earlier work in patent publication US20220095646A1, “METHODS FOR THE PRODUCTION AND USE OF MYCELIATED AMINO ACID-SUPPLEMENTED FOOD COMPOSITIONS” (MycoTechnology, Inc., priority 2019, published 2022).

As for `N[C@@H](CC(=O)O)C(=O)O` [Aspartic acid], the “Taste thresholds (Kato et al. 1989), sour” value is recorded as 0.03 mg/mL and the “Taste thresholds (Kato et al. 1989), umami” value is 1 mg/mL. For `N[C@@H](CCC(=O)O)C(=O)O` [Glutamic acid], the “Taste thresholds (Kato et al. 1989), sour” value is 0.05 mg/mL and the “Taste thresholds (Kato et al. 1989), umami” value is given as 0.3 mg/mL. On to `CC[C@H](C)[C@H](N)C(=O)O` [Isoleucine], for which the “Taste thresholds (Kato et al. 1989), bitter” value is reported as 0.9 (bitter) mg/mL. For `NCCCC[C@H](N)C(=O)O` [Lysine], for the setting “sweet and bitter”, the “Taste thresholds (Kato et al. 1989), sweet and bitter” value was 0.5 (sweet and bitter) mg/mL. Consider `C[C@@H](O)[C@H](N)C(=O)O` [Threonine], for which the “Taste thresholds (Kato et al. 1989), sweet” value (sweet) is 2.6 (sweet) mg/mL.

In the case of `CC(C)[C@H](N)C(=O)O` [Valine], the “Taste thresholds (Kato et al. 1989), bitter” value is 0.4 (bitter) mg/mL.
